{"source": "patent US6388174B1", "about": "“Gene encoding α-subunit of rice anthranilate synthase and DNA relating thereto” (Hokko Chemical Industry Co., Ltd., priority 1997, dated 2002)", "key": {"rice callus cells [1]": {"tested_on": "rice callus cells", "assay": "Selection of transformed rice callus cells and plants, Agrobacterium method (vector pUb-OSASA1D)", "assay_type": "cell-based, rice (variety: Nihonbare)", "protocol": "Preparation of Agrobacterium bacterium was carried out in the same manner as in Example 3(4) using the recombinant vector pUb-OSASA1D mentioned in the above (1). Preparation of rice callus cells was carried out in the same manner as in Example 3(5). And, gene introduction into the rice callus cells was carried out in the same manner as in Example 3(6).\nThe obtained calli as transformed with the recombinant vector were washed with sterilized water containing 500 mg/l carbenicillin, to remove the Agrobacterium bacterium. After removal of excess water, the calli (20 calli per petri dish, 500 calli in total) were transplanted to a solid medium as prepared by adding 30 g/l sucrose, 2 mg/l 2,4-PA, 500 mg/l carbenicillin, 2 g/l Gerite and 3×10^−4 M 5MT as a selective drug, to the inorganic salt composition of N6 medium. […]\n(§1) After one month of cultivation, the number of the transformed calli thus selected was counted. […]\nThe transformed calli as selected by the above cultivation in view of their 5MT resistance were transplanted to a solid regeneration medium which was prepared by adding 30 g/l sucrose, 30 g/l sorbitol, 2 g/l casamino acid, 1 mg/l NAA, 2 mg/l BA, 4 g/l Gel lite and3×10^−4M 5MT to the inorganic salt composition of MS medium. […] The number of the transformed plants regenerated from the transformed calluses was counted. […]"}, "rice callus cells [2]": {"tested_on": "rice callus cells", "assay": "Selection of transformed rice callus cells and plants, direct introduction using whiskers (vector pUBdD)", "assay_type": "cell-based, rice (variety: Nihonbare)", "protocol": "Ripe seeds of rice (variety: Nihonbare) were hulled, and the resulting seeds with coats were sterilized by immersion in a 70% ethanol solution for 60 seconds and then in a sodium hypochlorite solution containing about 1% effective chlorine for 6 minutes, followed by washing with sterilized water.\nThe thus sterilized rice seeds were placed on a medium as prepared by adding 30 g/l sucrose, 2 mg/l 2,4-PA as a phytohormone and 8 g/l agar to the inorganic component composition of MS medium. Incubation of seeds was carried out at 28° C. for 45 days with irradiation with light at 2000 lx for 16 hours per day, to form callus. The formed calli were cut from the albumen of the seeds, and those calli having a size of 1 mm or less were obtained in an amount of 3 ml in term of PCV (Packed Cell Volume), with using a stainless steel sieve (mesh size: 1 mm).\nSeparately, […] of potassium titanate whiskers (LS20, Titan Kogyo K.K.) was put into a 1.5-ml tube, and 0.5 ml of ethanol was added thereto. The mixture was allowed to stand overnight, and ethanol was evaporated completely to obtain sterilized whiskers. To this tube containing the whiskers was added 1 ml of sterilized water, followed by sufficient stirring. […]\nas §1"}, "[3]": {"conditions": "30 days on regeneration medium with selective drug (3×10^−4 M 5MT, or 50 mg/l hygromycin in control group)"}}, "data": [{"smiles": "Cc1ccc2[nH]cc(C[C@H](N)C(=O)O)c2c1", "note": "[Test Group, 5-methyltryptophan]", "values": [{"measurement": "Transformed Callus Cells Selected", "setting": "rice callus cells [1]; 500 calli tested, one month on selective medium (3×10^−4 M 5MT, or 50 mg/l hygromycin in control group)", "result": 45}, {"measurement": "Transformed Plants Selected", "setting": "rice callus cells [1]; [3]", "result": 43}, {"measurement": "Transformed Callus Cells Selected", "setting": "rice callus cells [2]; 2000 divided cells tested, one month on selective medium (10^−4 M 5MT, or 50 mg/l hygromycin in control group)", "result": 102}, {"measurement": "Transformed Plants Selected", "setting": "rice callus cells [2]; [3]", "result": 85}]}]}
